According to ChEMBL document CHEMBL3045446, “In vitro antimicrobial and antimycobacterial activity of some chalcones and their derivatives” (2013):
Converted amounts (≈) assume the structure as drawn.

Key:
Type in all cases: functional
[1] = system: Staphylococcus aureus; assay: Antimicrobial activity against Staphylococcus aureus MTCC 96 assessed as growth inhibition after 24 hr by agar streak dilution method; conditions: MTCC 96, 24 h
[2] = system: Pseudomonas aeruginosa; assay: Antimicrobial activity against Pseudomonas aeruginosa MTCC 741 assessed as diameter of growth inhibition zone after 24 hr
[3] = system: Aspergillus niger; assay: Antimicrobial activity against Aspergillus niger MTCC 282 assessed as growth inhibition after 48 hr by agar streak dilution method; conditions: MTCC 282, 48 h
[4] = system: Pseudomonas aeruginosa; assay: Antimicrobial activity against Pseudomonas aeruginosa MTCC 741 assessed as growth inhibition after 24 hr by agar streak dilution method; conditions: MTCC 741, 24 h
[5] = system: Bacillus cereus; assay: Antimicrobial activity against Bacillus cereus MTCC 430 assessed as growth inhibition after 24 hr by agar streak dilution method; conditions: MTCC 430, 24 h
[6] = system: Salmonella typhi; assay: Antimicrobial activity against Salmonella enterica subsp. enterica serovar Typhi MTCC 733 assessed as diameter of growth inhibition zone after 24 hr
[7] = system: Mycobacterium tuberculosis; assay: Antituberculosis activity against Mycobacterium tuberculosis H37Rv assessed as growth inhibition after 12 to 28 days by L-J MIC method; conditions: for MIC: Mycobacterium tuberculosis, H37Rv
[8] = system: Candida albicans; assay: Antimicrobial activity against Candida albicans MTCC 183 assessed as diameter of growth inhibition zone after 48 hr
[9] = system: Klebsiella pneumoniae; assay: Antimicrobial activity against Klebsiella pneumoniae MTCC 109 assessed as diameter of growth inhibition zone after 24 hr
[10] = system: Shigella flexneri; assay: Antimicrobial activity against Shigella flexneri MTCC1457 assessed as diameter of growth inhibition zone after 24 hr
[11] = system: Salmonella typhi; assay: Antimicrobial activity against Salmonella enterica subsp. enterica serovar Typhi MTCC 733 assessed as growth inhibition after 24 hr by agar streak dilution method; conditions: MTCC 733, 24 h
[12] = system: Aspergillus niger; assay: Antimicrobial activity against Aspergillus niger MTCC 282 assessed as diameter of growth inhibition zone after 48 hr
[13] = system: Bacillus cereus; assay: Antimicrobial activity against Bacillus cereus MTCC 430 assessed as diameter of growth inhibition zone after 24 hr
[14] = system: Aspergillus fumigatus; assay: Antimicrobial activity against Aspergillus fumigatus MTCC 343 assessed as growth inhibition after 48 hr by agar streak dilution method; conditions: MTCC 343, 48 h
[15] = system: Escherichia coli; assay: Antimicrobial activity against Escherichia coli MTCC 739 assessed as diameter of growth inhibition zone after 24 hr
[16] = system: Escherichia coli; assay: Antimicrobial activity against Escherichia coli MTCC 739 assessed as growth inhibition after 24 hr by agar streak dilution method; conditions: MTCC 739, 24 h
[17] = system: Proteus vulgaris; assay: Antimicrobial activity against Proteus vulgaris MTCC 1771 assessed as growth inhibition after 24 hr by agar streak dilution method; conditions: MTCC 1771, 24 h
[18] = system: Proteus vulgaris; assay: Antimicrobial activity against Proteus vulgaris MTCC 1771 assessed as diameter of growth inhibition zone after 24 hr
[19] = system: Aspergillus clavatus; assay: Antimicrobial activity against Aspergillus clavatus MTCC 1323 assessed as growth inhibition after 48 hr by agar streak dilution method; conditions: MTCC 1323, 48 h
[20] = system: Aspergillus fumigatus; assay: Antimicrobial activity against Aspergillus fumigatus MTCC 343 assessed as diameter of growth inhibition zone after 48 hr
[21] = system: Candida albicans; assay: Antimicrobial activity against Candida albicans MTCC 183 assessed as growth inhibition after 48 hr by agar streak dilution method; conditions: MTCC 183, 48 h
[22] = system: Aspergillus clavatus; assay: Antimicrobial activity against Aspergillus clavatus MTCC 1323 assessed as diameter of growth inhibition zone after 48 hr
[23] = system: Staphylococcus aureus; assay: Antimicrobial activity against Staphylococcus aureus MTCC 96 assessed as diameter of growth inhibition zone after 24 hr
[24] = system: Shigella flexneri; assay: Antimicrobial activity against Shigella flexneri MTCC1457 assessed as growth inhibition after 24 hr by agar streak dilution method; conditions: MTCC1457, 24 h
[25] = system: Klebsiella pneumoniae; assay: Antimicrobial activity against Klebsiella pneumoniae MTCC 109 assessed as growth inhibition after 24 hr by agar streak dilution method; conditions: MTCC 109, 24 h

| SMILES | MIC [1] [µg/mL] | diameter of the inhibition zone (DIZ) [2] [mm] | MIC [3] [µg/mL] | MIC [4] [µg/mL] | MIC [5] [µg/mL] | diameter of the inhibition zone (DIZ) [6] [mm] | growth inhibition (GI) [7] [%] | MIC [7] [µg/mL] | diameter of the inhibition zone (DIZ) [8] [mm] | diameter of the inhibition zone (DIZ) [9] [mm] | diameter of the inhibition zone (DIZ) [10] [mm] | MIC [11] [µg/mL] | diameter of the inhibition zone (DIZ) [12] [mm] | diameter of the inhibition zone (DIZ) [13] [mm] | MIC [14] [µg/mL] | diameter of the inhibition zone (DIZ) [15] [mm] | MIC [16] [µg/mL] | MIC [17] [µg/mL] | diameter of the inhibition zone (DIZ) [18] [mm] | MIC [19] [µg/mL] | further results |
| --- | --- | --- | --- | --- | --- | --- | --- | --- | --- | --- | --- | --- | --- | --- | --- | --- | --- | --- | --- | --- | --- |
| N#Cc1c(-c2ccccc2Br)cc(-c2ccc(Nc3cc(=O)oc4ccccc34)cc2)nc1N | 25 (≈ 49.1 µM) | 19 | 25 (≈ 49.1 µM) | 50 (≈ 98.2 µM) | 25 (≈ 49.1 µM) | 22 | 98 | 100 (≈ 196 µM) | 24 | 23 | 22 | 25 (≈ 49.1 µM) | 22 | 20 | 12.5 (≈ 24.5 µM) | 18 | 50 (≈ 98.2 µM) | 25 (≈ 49.1 µM) | 20 | 25 (≈ 49.1 µM) | diameter of the inhibition zone (DIZ) [20]: 22 mm; MIC [21]: 25 µg/mL (≈ 49.1 µM); diameter of the inhibition zone (DIZ) [22]: 19 mm; diameter of the inhibition zone (DIZ) [23]: 23 mm; MIC [24]: 12.5 µg/mL (≈ 24.5 µM); MIC [25]: 12.5 µg/mL (≈ 24.5 µM) |
| COc1ccc(C2CC(c3ccc(Nc4cc(=O)oc5ccccc45)cc3)=NN2C(C)=O)cc1OC (stereo not drawn) | 25 (≈ 51.7 µM) | 20 | 25 (≈ 51.7 µM) | 50 (≈ 103 µM) | 50 (≈ 103 µM) | 21 | 98 | 100 (≈ 207 µM) | 22 | 22 | 23 | 25 (≈ 51.7 µM) | 23 | 18 | 50 (≈ 103 µM) | 21 | 25 (≈ 51.7 µM) | 50 (≈ 103 µM) | 20 | 50 (≈ 103 µM) | diameter of the inhibition zone (DIZ) [20]: 19 mm; MIC [21]: 25 µg/mL (≈ 51.7 µM); diameter of the inhibition zone (DIZ) [22]: 20 mm; diameter of the inhibition zone (DIZ) [23]: 20 mm; MIC [24]: 12.5 µg/mL (≈ 25.9 µM); MIC [25]: 25 µg/mL (≈ 51.7 µM) |
| O=C(/C=C/c1ccc(Cl)cc1Cl)c1ccc(Nc2cc(=O)oc3ccccc23)cc1 | 25 (≈ 57.3 µM) | <10 | 100 (≈ 229 µM) | 100 (≈ 229 µM) | 50 (≈ 115 µM) | 17 | 95 | 1000 (≈ 2290 µM) | 12 | 16 | 13 | 50 (≈ 115 µM) | 15 | 16 | 50 (≈ 115 µM) | 14 | 100 (≈ 229 µM) | 50 (≈ 115 µM) | 19 | 100 (≈ 229 µM) | diameter of the inhibition zone (DIZ) [20]: 17 mm; MIC [21]: 100 µg/mL (≈ 229 µM); diameter of the inhibition zone (DIZ) [22]: 14 mm; diameter of the inhibition zone (DIZ) [23]: 20 mm; MIC [24]: 100 µg/mL (≈ 229 µM); MIC [25]: 100 µg/mL (≈ 229 µM) |
